Reference: patent publication US10457707B2, “Substituted urea depsipeptide analogs as activators of the CLPP endopeptidase” (priority 2015, dated 2019)
≈ marks a conversion by molar mass, not a printed value.

Tests used:
Format in all cases: cell-based
[1] = tested on: Staphylococcus aureus, NRS70; assay: Minimal inhibitory concentration assay (microbroth dilution); conditions: Staphylococcus aureus, NRS70, read-out: Minimal Inhibitory Concentrations S. aureus NRS70
Outline: (§1)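 Paired MICs against USA 300 and its ClpP-inactivated counterpart test whether killing runs through ClpP. All strains: two-fold broth dilutions from 200 μM final, ~10^5 cfu/mL inoculum, overnight at 37 °C in air, lowest growth-free concentration read by eye.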

[2] = tested on: Bacillus subtilis, ATCC 23857; assay: as above; conditions: Bacillus subtilis, ATCC23857, read-out: Minimal Inhibitory Concentrations B. subtilis ATCC 23857
Outline: as §1

[3] = tested on: Enterococcus faecalis, ATCC 33186; assay: as above; conditions: Enterococcus faecalis, ATCC33186, read-out: Minimal Inhibitory Concentrations E. faecalis ATCC 33186
Outline: as §1

[4] = tested on: Staphylococcus aureus, ATCC 29213; assay: as above; conditions: ATCC29213, read-out: Minimal Inhibitory Concentrations S. aureus ATCC 29213
Outline: as §1

[5] = tested on: Streptococcus pneumoniae, DAW27; assay: as above; conditions: DAW27, read-out: Minimal Inhibitory Concentrations S. pneumoniae DAW27
Outline: as §1

E. coli K12ΔtolC = assay: as above
[6] = tested on: Streptococcus pyogenes, ATCC 700294; assay: as above; conditions: Streptococcus pyogenes, ATCC700294, read-out: Minimal Inhibitory Concentrations S. pyogenes ATCC 700294
Outline: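 Plates with two-fold compound dilution series in broth were incubated overnight, aerobically, at 37° C, following CLSI microdilution guidance.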

[7] = tested on: Vero (kidney epithelial cells; ATCC CCL-81); assay: Cytotoxicity assay (CellTiter-Glo cell viability, 72 hours); conditions: Vero cells, 72 hours, growth inhibition; read-out: Cytotoxicity IC50
Outline: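 Viability measured by CellTiter-Glo luminescence after 72-hour compound exposure (serial dilutions, DMSO control) of Vero monolayers seeded at 5000 cells/well in 10% FBS DMEM. IC50 values are the range of two biologically independent experiments, each run in duplicate.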

Structure (SMILES)	MIC [1]	MIC [2]	MIC [3]	MIC [4]	MIC [5]	Minimal Inhibitory Concentrations E. coli K12ΔtolC (E. coli K12ΔtolC)	MIC [6]	IC50 [7]
COc1ccc(NC(=O)N[C@@H](Cc2ccccc2)C(=O)N[C@H]2COC(=O)[C@@H]3C[C@@H](C)CN3C(=O)[C@H](C)NC(=O)[C@@H]3CCCCN3C(=O)[C@@H]3CCCN3C2=O)cc1 [Compound 6, (S)—N-((2R,6S,8aS,14aS,20S,23aS)-2,6-dimethyl-5,8,14,19,23-pentaoxooctadecahydro-1H,5H,14H,19H-pyrido[2,1-i]dipyrrolo[2,1-c:2′,1′-l][1]oxa[4,7,10,13]tetraazacyclohexadecin-20-yl)-2-(3-(4-Methoxyphenyl)ureido)-3-phenylpropanamide]	3.13 µM (≈ 2.42 µg/mL)	1.56 µM (≈ 1.21 µg/mL)	0.78 µM (≈ 0.604 µg/mL)	3.13 µM (≈ 2.42 µg/mL)	0.2 µM (≈ 0.155 µg/mL)	50 µM	0.39 µM (≈ 0.302 µg/mL)	> 100 µM
C[C@@H]1C[C@H]2C(=O)OC[C@H](NC(=O)[C@H](Cc3ccccc3)NC(=O)Nc3ccccc3Cl)C(=O)N3CCC[C@H]3C(=O)N3CCCC[C@H]3C(=O)N[C@@H](C)C(=O)N2C1 [Compound 7, (S)-2-(3-(2-chlorophenyl)ureido)-N-((2R,6S,8aS,14aS,20S,23aS)-2,6-dimethyl-5,8,14,19,23-pentaoxooctadecahydro-1H,5H,14H,19H-pyrido[2,1-i]dipyrrolo[2,1-c:2′,1′-l][1]oxa[4,7,10,13]tetraazacyclohexadecin-20-yl)-3-phenylpropanamide]	12.5 µM (≈ 9.73 µg/mL)	6.25 µM (≈ 4.86 µg/mL)	3.13 µM (≈ 2.44 µg/mL)	12.5 µM (≈ 9.73 µg/mL)	0.78 µM (≈ 0.607 µg/mL)	200 µM	3.13 µM (≈ 2.44 µg/mL)	> 100 µM
C[C@@H]1C[C@H]2C(=O)OC[C@H](NC(=O)[C@H](Cc3ccccc3)NC(=O)Nc3cccc(Cl)c3)C(=O)N3CCC[C@H]3C(=O)N3CCCC[C@H]3C(=O)N[C@@H](C)C(=O)N2C1 [Compound 9, (S)-2-(3-(3-chlorophenyl)ureido)-N-((2R,6S,8aS,14aS,20S,23aS)-2,6-dimethyl-5,8,14,19,23-pentaoxooctadecahydro-1H,5H,14H,19H-pyrido[2,1-i]dipyrrolo[2,1-c:2′,1′-l][1]oxa[4,7,10,13]tetraazacyclohexadecin-20-yl)-3-phenylpropanamide]	1.56 µM (≈ 1.21 µg/mL)	1.56 µM (≈ 1.21 µg/mL)	1.56 µM (≈ 1.21 µg/mL)	3.13 µM (≈ 2.44 µg/mL)	0.78 µM (≈ 0.607 µg/mL)	25 µM	1.56 µM (≈ 1.21 µg/mL)	89 ± 5 µM
C[C@@H]1C[C@H]2C(=O)OC[C@H](NC(=O)[C@H](Cc3ccccc3)NC(=O)Nc3ccc(Cl)cc3)C(=O)N3CCC[C@H]3C(=O)N3CCCC[C@H]3C(=O)N[C@@H](C)C(=O)N2C1 [Compound 3, (S)-2-(3-(4-chlorophenyl)ureido)-N-((2R,6S,8aS,14aS,20S,23aS)-2,6-dimethyl-5,8,14,19,23-pentaoxooctadecahydro-1H,5H,14H,19H-pyrido[2,1-i]dipyrrolo[2,1-c:2′,1′-l][1]oxa[4,7,10,13]tetraazacyclohexadecin-20-yl)-3-phenylpropanamide]	0.78 µM (≈ 0.607 µg/mL)	0.78 µM (≈ 0.607 µg/mL)	0.2 µM (≈ 0.156 µg/mL)	1.56 µM (≈ 1.21 µg/mL)	0.2 µM (≈ 0.156 µg/mL)	25 µM	0.39 µM (≈ 0.304 µg/mL)	63 ± 5.8 µM
C[C@@H]1C[C@H]2C(=O)OC[C@H](NC(=O)[C@H](Cc3ccccc3)NC(=O)Nc3ccccc3)C(=O)N3CCC[C@H]3C(=O)N3CCCC[C@H]3C(=O)N[C@@H](C)C(=O)N2C1 [Compound 1, (S)—N-((2R,6S,8aS,14aS,20S,23aS)-2,6-dimethyl-5,8,14,19,23-pentaoxooctadecahydro-1H,5H,14H,19H-pyrido[2,1-i]dipyrrolo[2,1-c:2′,1′-l][1]oxa[4,7,10,13]tetraazacyclohexadecin-20-yl)-3-phenyl-2-(3-phenylureido)propanamide]	6.25 µM (≈ 4.65 µg/mL)	1.56 µM (≈ 1.16 µg/mL)	3.13 µM (≈ 2.33 µg/mL)	6.25 µM (≈ 4.65 µg/mL)	0.78 µM (≈ 0.58 µg/mL)	200 µM	1.56 µM (≈ 1.16 µg/mL)	> 100 µM
